Laboratory results: ChEMBL document CHEMBL1138752, “2-Pyrazolyl-N(6)-substituted adenosine derivatives as high affinity and selective adenosine A(3) receptor agonists” (J Med Chem, 2004)
pKi: −log10 of the molar value.

Tests used:
Adenosine receptor A1 = target: T1, Adenosine receptor A1 (Homo sapiens, UniProt P30542); experiment: biochemical
T1 sequence (P30542 whole entry): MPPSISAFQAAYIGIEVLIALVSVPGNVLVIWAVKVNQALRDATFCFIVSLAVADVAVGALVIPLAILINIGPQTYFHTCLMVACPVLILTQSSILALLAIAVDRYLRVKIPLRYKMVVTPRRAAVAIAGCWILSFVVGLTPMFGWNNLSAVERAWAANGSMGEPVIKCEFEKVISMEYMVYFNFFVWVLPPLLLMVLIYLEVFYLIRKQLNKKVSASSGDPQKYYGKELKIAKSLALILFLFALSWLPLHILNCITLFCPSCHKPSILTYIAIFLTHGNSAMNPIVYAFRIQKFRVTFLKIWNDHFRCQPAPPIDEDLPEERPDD
Description: Displacement of [3H]CCPA from recombinant human adenosine A1 receptor expressed in CHO cells

[1] = target: Adenosine receptors; A1 & A3 (Homo sapiens) (UniProt P30542+P0DMS8); experiment: Ratio of binding to adenosine A1 and adenosine A3 receptor; format: protein assay
Adenosine receptor A2a = Adenosine receptor A2a (Homo sapiens, UniProt P29274); experiment: biochemical
Description: Displacement of [3H]CGS-21680 from recombinant human adenosine A2a receptor expressed in HEK cells

[2] = target: Adenosine receptors; A2a & A3 (Homo sapiens) (UniProt P0DMS8+P29274); experiment: Ratio of binding to adenosine A2a and adenosine A3 receptor; format: protein assay
Adenosine receptor A3 = target: T2, Adenosine receptor A3 (Homo sapiens, UniProt P0DMS8); experiment: biochemical
T2 sequence (P0DMS8 whole entry): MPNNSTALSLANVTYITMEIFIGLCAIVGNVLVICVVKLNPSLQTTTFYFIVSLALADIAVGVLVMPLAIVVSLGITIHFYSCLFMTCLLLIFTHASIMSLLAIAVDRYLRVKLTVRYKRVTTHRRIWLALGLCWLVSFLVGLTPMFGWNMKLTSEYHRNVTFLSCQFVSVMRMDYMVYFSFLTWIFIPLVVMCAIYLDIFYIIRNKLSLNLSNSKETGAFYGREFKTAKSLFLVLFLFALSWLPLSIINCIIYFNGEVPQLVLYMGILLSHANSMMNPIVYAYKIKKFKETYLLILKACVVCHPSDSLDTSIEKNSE
Description: Displacement of [125I]-AB MECA from recombinant human adenosine A3 receptor expressed in HEK cells

Sequence of Adenosine receptor A2a (P29274 whole entry): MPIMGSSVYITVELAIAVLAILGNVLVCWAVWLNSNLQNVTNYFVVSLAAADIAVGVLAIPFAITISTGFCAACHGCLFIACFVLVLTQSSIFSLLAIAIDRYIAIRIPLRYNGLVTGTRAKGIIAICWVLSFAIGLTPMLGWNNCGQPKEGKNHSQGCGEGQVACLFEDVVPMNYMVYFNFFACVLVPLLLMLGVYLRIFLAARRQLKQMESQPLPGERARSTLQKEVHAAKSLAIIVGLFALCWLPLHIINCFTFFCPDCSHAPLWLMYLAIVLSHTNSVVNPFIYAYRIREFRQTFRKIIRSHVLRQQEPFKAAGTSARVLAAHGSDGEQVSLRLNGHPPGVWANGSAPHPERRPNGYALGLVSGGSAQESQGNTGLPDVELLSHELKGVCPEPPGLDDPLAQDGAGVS
Sequence of Adenosine receptors; A2a & A3 (Homo sapiens) (P29274 whole entry, looked up, one chain of several): as the sequence (P29274 whole entry) above

SMILES	pKi (Adenosine receptor A1)	Selectivity [1]	pKi (Adenosine receptor A2a)	Selectivity [2]	pKi (Adenosine receptor A3)
CNc1nc(-n2cc(-c3ccc4ccccc4n3)cn2)nc2c1ncn2C1O[C@H](CO)[C@@H](O)[C@H]1O (stereo partly specified)	< 5.30	> 1600	< 5.30	> 1600	8.52
CCCNC(=O)c1cnn(-c2nc(NC)c3ncn(C4O[C@H](CO)[C@@H](O)[C@H]4O)c3n2)c1 (stereo partly specified)	< 5.40	> 200	< 5.40	> 200	7.72
CNc1nc(-n2cc(-c3ccncc3)cn2)nc2c1ncn2C1O[C@H](CO)[C@@H](O)[C@H]1O (stereo partly specified)	5.42	600	< 5.30	> 800	8.22
CNc1nc(-n2cc(C(=O)NCc3ccc(Cl)cc3)cn2)nc2c1ncn2C1O[C@H](CO)[C@@H](O)[C@H]1O (stereo partly specified)	5.70	–	5.40	25	6.80
CNc1nc(-n2cc(-c3ccc(Cl)cc3)cn2)nc2c1ncn2C1O[C@H](CO)[C@@H](O)[C@H]1O (stereo partly specified)	< 5.22	> 600	< 5.30	> 500	8.00
CNC(=O)c1cnn(-c2nc(N)c3ncn([C@@H]4O[C@H](CO)[C@@H](O)[C@H]4O)c3n2)c1 [REGADENOSON ANHYDROUS]	–	–	–	–	< 5.00
CCNc1nc(-n2cc(-c3ccccn3)cn2)nc2c1ncn2[C@@H]1O[C@H](CO)[C@@H](O)[C@H]1O	–	–	5.74	–	6.97
CNc1nc(-n2cc(-c3ccc(OC)cc3)cn2)nc2c1ncn2[C@@H]1O[C@H](CO)[C@@H](O)[C@H]1O	–	> 200	< 5.30	> 300	7.82
COc1ccc(-c2cnn(-c3nc(N)c4ncn([C@@H]5O[C@H](CO)[C@@H](O)[C@H]5O)c4n3)c2)cc1	–	–	6.72	–	< 5.22
CNc1nc(-c2cnn(Cc3ccccc3)c2)nc2c1ncn2C1O[C@H](CO)[C@@H](O)[C@H]1O (stereo partly specified)	5.89	13	< 5.30	> 50	7.01
COc1ccc(-c2cnn(-c3nc(NCc4cccc(I)c4)c4ncn(C5O[C@H](CO)[C@@H](O)[C@H]5O)c4n3)c2)cc1 (stereo partly specified)	5.35	14	5.40	10	6.49
Nc1nc(-c2cnn(Cc3ccccc3)c2)nc2c1ncn2[C@@H]1O[C@H](CO)[C@@H](O)[C@H]1O	–	–	8.82	–	< 5.00
CCNc1nc(-n2cc(-c3ccc(OC)cc3)cn2)nc2c1ncn2[C@@H]1O[C@H](CO)[C@@H](O)[C@H]1O	–	90	5.40	100	7.39
CNc1nc(-n2cc(-c3ccccn3)cn2)nc2c1ncn2[C@@H]1O[C@H](CO)[C@@H](O)[C@H]1O	–	–	< 5.30	–	–
CCCNc1nc(-n2cc(-c3ccc(OC)cc3)cn2)nc2c1ncn2C1O[C@H](CO)[C@@H](O)[C@H]1O (stereo partly specified)	5.52	45	5.48	50	7.19
OC[C@H]1OC(n2cnc3c(NCc4cccc(I)c4)nc(-n4cc(-c5nccc6ccccc56)cn4)nc32)[C@H](O)[C@@H]1O (stereo partly specified)	6.11	7	7.28	< 1	6.96
CNc1nc(-n2cc(-c3cccnc3)cn2)nc2c1ncn2C1O[C@H](CO)[C@@H](O)[C@H]1O (stereo partly specified)	5.74	900	5.39	2000	8.70
CCNC(=O)c1cnn(-c2nc(NC)c3ncn(C4O[C@H](CO)[C@@H](O)[C@H]4O)c3n2)c1 (stereo partly specified)	–	–	–	–	7.31
OC[C@H]1OC(n2cnc3c(NCc4cccc(I)c4)nc(-n4cc(-c5ccccn5)cn4)nc32)[C@H](O)[C@@H]1O (stereo partly specified)	5.38	24	< 5.41	> 22	6.77
CCCNc1nc(-c2cnn(Cc3ccccc3)c2)nc2c1ncn2C1O[C@H](CO)[C@@H](O)[C@H]1O (stereo partly specified)	–	–	–	–	6.83
CNc1nc(-n2cc(-c3nc4ccccc4o3)cn2)nc2c1ncn2C1O[C@H](CO)[C@@H](O)[C@H]1O (stereo partly specified)	5.59	1300	5.60	1200	8.70
CNC(=O)c1cnn(-c2nc(NC)c3ncn([C@@H]4O[C@H](CO)[C@@H](O)[C@H]4O)c3n2)c1	–	> 80	< 5.22	> 80	7.14
